The test addresses T1, Recombinant human mPGES-1 (Homo sapiens, UniProt O14684).
T1 construct: made in house; host or cells: CHO cells
T1 sequence (O14684 1-152): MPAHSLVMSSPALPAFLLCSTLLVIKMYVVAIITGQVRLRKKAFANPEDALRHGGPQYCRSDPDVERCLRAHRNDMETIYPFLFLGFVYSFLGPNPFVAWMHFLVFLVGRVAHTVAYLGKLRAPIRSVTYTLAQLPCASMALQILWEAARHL
In words: In-vitro mPGES-1 inhibitor screening (inhibition of PGE2 formation from PGH2, HTRF detection). The class given is biochemical. The conditions noted are these: for inhibition at 1 µM: 1 μM test compound, read-out: Percentage inhibition at 1 μM; for inhibition at 1 µM / inhibition at 10 µM: crude microsomal fraction, 15 μM PGH2; for inhibition at 10 µM: 10 μM test compound, read-out: Percentage inhibition at 10 μM; for IC50: class symbol, concentration response curve. The source says: In-Vitro Protocol for Screening of mPGES-1 Inhibitors:
mPGES-1 (microsomal prostaglandin E synthase-1) is a microsomal enzyme that converts endoperoxide substrate PGH2 (prostaglandin H2) to product PGE2 (prostaglandin E2) by isomerization in the presence of reduced glutathione (GSH). mPGES-1 inhibitors were screened by assessing their ability to inhibit formation of PGE2 from PGH2 in presence of mPGES-1 using an anti-PGE2 antibody based detection method. Recombinant human mPGES-1 was generated in-house by expression in CHO cells (Ouellet M et al. (2002), Protein Expression and Purification 26: 489-495). The assay was set up using crude microsomal fractions at protein concentration of 40-60 μg/mL. Test compounds were prepared in 100% dimethyl sulfoxide (DMSO) to obtain 20 mM stock solution and then diluted using assay buffer comprising 0.1 M Potassium phosphate buffer with 2 mM EDTA. The final concentration of DMSO in reaction was 0.5% (v/v). Negative controls were comprised of all assay reagents except the enzyme. Positive controls were comprised of the enzyme reaction in the absence of any inhibitor. Test compounds were incubated for 10 minutes in assay buffer containing 2.5 mM GSH and mPGES-1 enzyme followed by addition of PGH2 at a concentration of 15 μM for 1 minute. The reaction was stopped by addition of Stannous chloride (11 mg/ml) and PGE2 levels were measured (Masse F et al. (2005), Journal of Biomolecular Screening 10(6) 599-605., Goedken R E et al. (2008), Journal of Biomolecular Screening 13(7): 619-625) by HTRF kit (CisBio)).
Inhibition of mPGES-1 enzyme activity was measured using the percent of reaction occurring in the positive control. Concentration response curves were plotted using percent inhibition of maximum enzyme reaction. The IC50 value was calculated from the concentration response curve by nonlinear regression analysis using GraphPad PRISM software.
A general note: Time-resolved FRET reads energy transfer from a long-lived donor to a nearby acceptor.

In general, inhibition refers to the change of the read-out against control, counted positive when it falls. The term IC50 denotes the concentration that gives 50% inhibition. As to `CC(C)(C)C(=O)NCc1ccc(Cl)c(C(=O)Nc2cccc3c(Oc4cccc(C(F)(F)F)c4)ncnc23)c1F` [Example-11, 6-Chloro-2-fluoro-3-(pivalamidomethyl)-N-(4-(3-(trifluoromethyl)phenoxy)quinazolin-8-yl)benzamide], the inhibition at 1 µM is 97.4%, the inhibition at 10 µM was 90.7% and the IC50 was less than 0.05 µM.

In the case of `CC(C)(C)C(=O)NCc1ccc(Cl)c(C(=O)Nc2cccc3c(Nc4cccc(C(F)(F)F)c4)ncnc23)c1F` [Example-12, 6-Chloro-2-fluoro-3-(pivalamidomethyl)-N-(4-((3-(trifluoromethyl)phenyl)amino)quinazolin-8-yl)benzamide], the inhibition at 1 µM amounted to 99.4%, the inhibition at 10 µM worked out at 99.7% and the IC50 was less than 0.05 µM.

Regarding `CC(C)(C)C(=O)NCc1ccc(Cl)c(C(=O)Nc2cccc3c(Nc4cccc(C(F)(F)F)c4)ncnc23)c1` [Example-13, 2-Chloro-5-(pivalamidomethyl)-N-(4-((3-(trifluoromethyl)phenyl)amino)quinazolin-8-yl)benzamide], the inhibition at 1 µM was determined as 90.2%, the inhibition at 10 µM was 92.2% and the IC50 is less than 0.05 µM.

`CC(C)(C)C(=O)NCc1ccc(Cl)c(C(=O)Nc2cccc3c(NC4CCC(F)(F)CC4)ncnc23)c1` [Example-14, 2-Chloro-N-(4-((4,4-difluorocyclohexyl)amino)quinazolin-8-yl)-5-(pivalamidomethyl)benzamide]: the inhibition at 1 µM was 100%, the inhibition at 10 µM came out at 100% and the concentration for half-maximal inhibition (IC50) is less than 0.05 µM.

As to `CC1(C)CCC(Oc2ncnc3c(NC(=O)c4cc(CNC(=O)C(C)(C)C)ccc4Cl)cccc23)CC1` [Example-15, 2-Chloro-N-(4-((4,4-dimethylcyclohexyl)oxy)quinazolin-8-yl)-5-(pivalamidomethyl)benzamide], the inhibition at 1 µM worked out at 98.1%, the inhibition at 10 µM is 97.5% and the IC50 was less than 0.05 µM.

Regarding `CC(C)(C)C(=O)NCc1ccc(Cl)c(C(=O)Nc2cccc3c(Oc4cccc(C(F)(F)F)c4)ccnc23)c1` [Example-16, 2-Chloro-5-(pivalamidomethyl)-N-(4-(3-(trifluoromethyl)phenoxy)quinolin-8-yl)benzamide], the inhibition at 1 µM was determined as 99%, the inhibition at 10 µM was 99.6% and the IC50 was less than 0.05 µM.

On to `CC(C)(C)C(=O)NCc1ccc(Cl)c(C(=O)Nc2cccc3c(Oc4cccc(C(F)(F)F)c4)ccnc23)n1` [Example-17, 3-Chloro-6-(pivalamidomethyl)-N-(4-(3-(trifluoromethyl)phenoxy)quinolin-8-yl)picolinamide], for which the inhibition at 1 µM stood at 94.3%, the inhibition at 10 µM is 93.9% and the IC50 was less than 0.05 µM.

With `CC(C)(C)C(=O)NCc1ccc(Cl)c(C(=O)Nc2cccc3c(Oc4cccc(C(F)(F)F)c4)ccnc23)c1F` [Example-18, 6-Chloro-2-fluoro-3-(pivalamidomethyl)-N-(4-(3-(trifluoromethyl)phenoxy)quinolin-8-yl)benzamide], the inhibition at 1 µM is 100%, the inhibition at 10 µM is 99.9% and the IC50 is less than 0.05 µM.

Turning to `CC(C)(C)C(=O)NCc1ccc(Cl)c(C(=O)Nc2ccnc3c(Nc4cccc(C(F)(F)F)c4)cccc23)c1` [Example-19, 2-Chloro-5-(pivalamidomethyl)-N-(8-((3-(trifluoromethyl)phenyl)amino)quinolin-4-yl)benzamide], the inhibition at 1 µM amounted to 97.7%, the inhibition at 10 µM came out at 98.2% and the IC50 is less than 0.05 µM.

For the compound `CC(C)(C)C(=O)NCc1ccc(Cl)c(C(=O)Nc2cccc3c(NC4CCC(F)(F)CC4)ncnc23)c1F` [Example-20, 6-Chloro-N-(4-((4,4-difluorocyclohexyl)amino)quinazolin-8-yl)-2-fluoro-3-(pivalamidomethyl)benzamide], the inhibition at 1 µM was 98.8%, the inhibition at 10 µM stood at 99.4% and the IC50 was less than 0.05 µM.

With `CC(C)(C)C(=O)NCc1ccc(Cl)c(C(=O)Nc2cccc3c(Nc4cc(C(F)(F)F)ccc4F)ncnc23)c1F` [Example-21, 6-Chloro-2-fluoro-N-(4-((2-fluoro-5-(trifluoromethyl)phenyl)amino)quinazolin-8-yl)-3-(pivalamidomethyl)benzamide], the inhibition at 1 µM was determined as 97.3%, the inhibition at 10 µM came out at 97.2% and the IC50 is less than 0.05 µM.

Take `CC1(C)CCC(Nc2ncnc3c(NC(=O)c4c(Cl)ccc(CNC(=O)C(C)(C)C)c4F)cccc23)CC1` [Example-22, 6-Chloro-N-(4-((4,4-dimethylcyclohexyl)amino)quinazolin-8-yl)-2-fluoro-3-(pivalamidomethyl)benzamide]: the inhibition at 1 µM is 100%, the inhibition at 10 µM turned out to be 99.6% and the IC50 was less than 0.05 µM.

With `O=C(Nc1cccc2c(Nc3cccc(C(F)(F)F)c3)ncnc12)c1c(Cl)ccc(CNC(=O)[C@@H]2CCCO2)c1F` [Example-23, (S)—N-(4-Chloro-2-fluoro-3-((4-((3-(trifluoromethyl)phenyl)amino)quinazolin-8-yl)carbamoyl)benzyl)tetrahydrofuran-2-carboxamide], the inhibition at 1 µM stood at 95%, the inhibition at 10 µM was 94.9% and the IC50 was less than 0.05 µM.

Take `CC1(C)CCC(Oc2ncnc3c(NC(=O)c4c(Cl)ccc(CNC(=O)C(C)(C)C)c4F)cccc23)CC1` [Example-24, 6-Chloro-N-(4-((4,4-dimethylcyclohexyl)oxy)quinazolin-8-yl)-2-fluoro-3-(pivalamidomethyl)benzamide]: the inhibition at 1 µM is 99.3%, the inhibition at 10 µM was determined as 99.8% and the IC50 was less than 0.05 µM.

`CC(C)(C)C(=O)NCc1ccc(Cl)c(C(=O)Nc2cccc3c(Nc4ccc(F)c(C(F)(F)F)c4)ncnc23)c1F` [Example-25, 6-Chloro-2-fluoro-N-(4-((4-fluoro-3-(trifluoromethyl)phenyl)amino)quinazolin-8-yl)-3-(pivalamidomethyl)benzamide]: the inhibition at 1 µM amounted to 97.7%, the inhibition at 10 µM worked out at 98.3% and the IC50 is less than 0.05 µM.

Consider `CC(C)(C)C(=O)NCc1ccc(Cl)c(C(=O)Nc2cccc3c(O[C@H]4CC[C@@H](C(F)(F)F)CC4)ncnc23)c1F` [Example-26, 6-Chloro-2-fluoro-3-(pivalamidomethyl)-N-(4-(((1s,4s)-4-(trifluoromethyl)cyclohexyl)oxy)quinazolin-8-yl)benzamide], for which the inhibition at 1 µM was 93.4%, the inhibition at 10 µM came out at 93.1% and the IC50 was less than 0.05 µM.

For `CC(C)(C)C(=O)NCc1ccc(Cl)c(C(=O)Nc2cccc3c(O[C@H]4CC[C@H](C(F)(F)F)CC4)ncnc23)c1F` [Example-27, 6-Chloro-2-fluoro-3-(pivalamidomethyl)-N-(4-(((1r,4r)-4-(trifluoromethyl)cyclohexyl)oxy)quinazolin-8-yl)benzamide], the inhibition at 1 µM came to 94.4%, the inhibition at 10 µM came out at 93.9% and the IC50 was less than 0.05 µM.

On to `CC(C)(C)C(=O)NCc1ccc(Cl)c(C(=O)Nc2cccc3c(Oc4cc(C(F)(F)F)ccc4F)ncnc23)c1F` [Example-28, 6-Chloro-2-fluoro-N-(4-(2-fluoro-5-(trifluoromethyl)phenoxy)quinazolin-8-yl)-3-(pivalamidomethyl)benzamide], for which the inhibition at 1 µM turned out to be 99.1%, the inhibition at 10 µM stood at 100% and the IC50 was less than 0.05 µM.

(Values after US9006257B2, “Bicyclic compounds as mPGES-1 inhibitors” (Glenmark Pharmaceuticals S.A., priority 2012, dated 2015).)
